Laboratory results as given in US20130274235A1, “TREATMENT OF MOTOR NEURON DISEASE” (THE GENERAL HOSPITAL CORPORATION, priority 2010, published 2013).
Structures can show the parent of a compound that is named as a salt.

What was measured:
IGF-II mRNA = assay: IGF-II expression assay, qPCR detection, in primary spinal cord cultures; format: cell-based, mice; details: for induction of IGF-II expression (in words): antihypertensive agents, FIGS. 5 and 6; for IGF-II inducing activity (in words): NSAID series, FIGS. 3 and 4
Description: Quantitative PCR utilizing SYBR green I (Molecular Probes, Eugene, Oreg.) or specific Taqman probes was used to confirm differential gene expression. RNA extracted from 100-200 LCMed motor neurons were reverse transcribed using Superscript III (Invitrogen). 2 μl of diluted cDNA was amplified (DNA Engine Opticon real-time PCR machine, Bio-Rad), in […] reactions containing 900 nM primer and 250 nM probe in Taqman Universal Master Mix (Applied Biosystems). Reactions were run in duplicate and each gene analyzed in at least three different animals. Reaction parameters were as follows: 50° C. for 2 min, 95° C. for 10 min, and 40 cycles of 95° C. for 15 s and 60° C. for 1 min. Controls lacking template and/or Superscript were included. The absolute copy number for each gene was quantified using a standard curve from human GAPDH plasmid and amplified products were normalized against rat GAPDH expression. Primers and probes (Integrated DNA technologies) were as follows: rat GAPDH: Forward primer: […]
Two libraries of FDA-approved drugs (NINDS and Harvard LDDN) were screened for their ability to up-regulate IGF-II expression. Candidate compounds were screened in an IGF-II expression assay using a qPCR detection methodology in primary spinal cord cultures or using a luciferase reporter assay. In the initial screening, therapeutic candidates were identified as those that increased IGF-II expression by at least 2-fold. […]

IGF-II protein = IGF-II protein expression in primary spinal cord cultures, quantitated by ELISA; format: cell-based, mice
Description: Further results of the library screening identified the following therapeutic agents as having a significant inducing effect on IGF-II expression in primary spinal cord cultures and are useful for treating motor neuron disease. Protein expression was quantitated by ELISA.

COc1ccccc1OCC(O)CO (stereo not shown) [Guaifenesin]
Fold Increase in IGF-II mRNA Expression (IGF-II mRNA): 2.9 fold

Clc1cccc(Cl)c1N=C1NCCN1 [clonidine HCl]
induction of IGF-II expression (in words) (IGF-II mRNA): most active

CN1CCCC1c1cccnc1.O=C(O)C(O)C(O)C(=O)O.O=C(O)C(O)C(O)C(=O)O (stereo not shown) [Nicotine ditartrate]
Fold Increase in IGF-II Protein Expression (IGF-II protein): 1.5 fold
IGF-II Protein Expression (pg/ml in media) (IGF-II protein): (205 ± 26) pg/ml
Fold Increase in IGF-II mRNA Expression (IGF-II mRNA): 4.8 ± 0.3 fold

COC(=O)C1=C(C)NC(C)=C(C(=O)OC)C1c1ccccc1[N+](=O)[O-] [Nifedipine]
Fold Increase in IGF-II mRNA Expression (IGF-II mRNA): 6.6 ± 6.2 fold

O=C(O)c1cc(-c2ccc(F)cc2F)ccc1O [diflunisal]
IGF-II inducing activity (in words) (IGF-II mRNA): strong IGF-II inducing activity

Nc1c2c(nc3ccccc13)CCCC2 [Tacrine HCl]
Fold Increase in IGF-II mRNA Expression (IGF-II mRNA): 3.7 fold

Nc1nc(/C(=C/CC(=O)O)C(=O)N[C@@H]2C(=O)N3C(C(=O)O)=CCS[C@H]23)cs1 [Ceftibuten]
Fold Increase in IGF-II mRNA Expression (IGF-II mRNA): 3.9 ± 2.7 fold

Clc1ccc2c(c1)C(N1CCNCC1)=Nc1ccccc1O2 [Amoxapine]
Fold Increase in IGF-II mRNA Expression (IGF-II mRNA): 4.1 ± 2.3 fold

Cc1onc(-c2c(Cl)cccc2Cl)c1C(=O)N[C@@H]1C(=O)N2[C@@H]1SC(C)(C)[C@@H]2C(=O)O [Dicloxacillin sodium]
Fold Increase in IGF-II mRNA Expression (IGF-II mRNA): 3.2 fold

COc1ccc2[nH]c([S+]([O-])Cc3ncc(C)c(OC)c3C)nc2c1 (stereo not shown) [Omeprazole]
Fold Increase in IGF-II mRNA Expression (IGF-II mRNA): 5.9 fold

NNc1nncc2ccccc12 [Hydralazine HCl]
Fold Increase in IGF-II mRNA Expression (IGF-II mRNA): 6.3 fold
induction of IGF-II expression (in words) (IGF-II mRNA): most active

CCCCNc1cc(C(=O)O)cc(S(N)(=O)=O)c1Oc1ccccc1 [bumetanide]
induction of IGF-II expression (in words) (IGF-II mRNA): most active

terbutaline hemisulfate
induction of IGF-II expression (in words) (IGF-II mRNA): most active

COc1cc2c(cc1OC)C(=O)C(CC1CCN(Cc3ccccc3)CC1)C2 (stereo not shown) [donepezil HCl]
induction of IGF-II expression (in words) (IGF-II mRNA): most active

Cc1ncc(C[n+]2csc(CCO[P@](=O)(O)OP(=O)(O)O)c2C)c(N)n1 [Thiamine pyrophosphate]
Fold Increase in IGF-II Protein Expression (IGF-II protein): 0.9 fold
IGF-II Protein Expression (pg/ml in media) (IGF-II protein): (118 ± 42) pg/ml
Fold Increase in IGF-II mRNA Expression (IGF-II mRNA): 4.1 ± 2.1 fold

CN(C)CCCN1c2ccccc2Sc2ccc(Cl)cc21 [Chlorpromazine]
Fold Increase in IGF-II mRNA Expression (IGF-II mRNA): 3.4 fold

COc1ccc(Cl)cc1C(=O)NCCc1ccc(S(=O)(=O)NC(=O)NC2CCCCC2)cc1 [Glyburide]
Fold Increase in IGF-II mRNA Expression (IGF-II mRNA): 4.9 fold

COCCCOc1cc(C[C@@H](C[C@H](N)[C@@H](O)C[C@H](C(=O)NCC(C)(C)C(N)=O)C(C)C)C(C)C)ccc1OC [aliskiren hemifumarate]
induction of IGF-II expression (in words) (IGF-II mRNA): most active

CC(C)[C@H](N)C(=O)OCCOCn1cnc2c(=O)[nH]c(N)nc21 [Valacyclovir HCl]
Fold Increase in IGF-II Protein Expression (IGF-II protein): 1.5 fold
IGF-II Protein Expression (pg/ml in media) (IGF-II protein): (232 ± 4) pg/ml
Fold Increase in IGF-II mRNA Expression (IGF-II mRNA): 4.2 ± 1.8 fold

COc1ccccc1OCCNCC(O)COc1cccc2[nH]c3ccccc3c12 (stereo not shown) [carvedilol]
induction of IGF-II expression (in words) (IGF-II mRNA): most active

CC(C(=O)O)c1ccc2c(c1)[nH]c1ccc(Cl)cc12 (stereo not shown) [Carboprofen]
Fold Increase in IGF-II mRNA Expression (IGF-II mRNA): 2.4 fold
IGF-II inducing activity (in words) (IGF-II mRNA): strong IGF-II inducing activity

C[N+](C)(C)C[C@H](O)CC(=O)[O-] [Levocarnitine]
Fold Increase in IGF-II Protein Expression (IGF-II protein): 1.7 fold
IGF-II Protein Expression (pg/ml in media) (IGF-II protein): (258 ± 7) pg/ml
Fold Increase in IGF-II mRNA Expression (IGF-II mRNA): 5.7 ± 1.1 fold

Cc1cnc(NC(=O)C2=C(O)c3ccccc3S(=O)(=O)N2C)s1 [Meloxicam sodium]
Fold Increase in IGF-II mRNA Expression (IGF-II mRNA): 4.1 fold

Cc1cc2nc3c(=O)[nH]c(=O)nc-3n(C[C@H](O)[C@H](O)[C@H](O)CO)c2cc1C [Riboflavin]
Fold Increase in IGF-II Protein Expression (IGF-II protein): 1.5 fold
IGF-II Protein Expression (pg/ml in media) (IGF-II protein): (205 ± 42) pg/ml
Fold Increase in IGF-II mRNA Expression (IGF-II mRNA): 4.1 ± 1.9 fold

CN1CCCC(n2nc(Cc3ccc(Cl)cc3)c3ccccc3c2=O)CC1 (stereo not shown) [Azelastine HCl]
Fold Increase in IGF-II mRNA Expression (IGF-II mRNA): 3.2 fold
